Measured values reported in patent publication US7989494B2, “Polymorphs of N-hydroxy-3-[4-[[[2-(2-methyl-1H-indol-3-yl)ethyl]amino]methyl]phenyl]-2E-2-propenamide” (Novartis AG, priority 2006, dated 2011).
In brackets after ≈: the same amount, converted by molar mass. Counter-ions that a name gives are not always drawn. Like-named read-outs stand apart in the source and are kept apart here.

How the values were obtained:
Type in all cases: physicochemical
[1] = Solubility in organic solvents; conditions: for solubility: organic solvent or mixture
[2] = Hydration/dehydration of free base forms on storage or under vacuum; conditions: for form change upon storage: storage at ambient conditions
Aqueous solubility = conditions: water
[3] = Hygroscopicity (descriptive)
[4] = Equilibration in solvents and aqueous media, solid form by XRPD
Intrinsic dissolution = experiment: Intrinsic dissolution
[5] = Sorption-desorption isotherms, VTI humidity balance; conditions: for Sorption: 25° C., first sorption cycle; for Desorption: in % (unit assumed)
Experimental: Sorption-desorption isotherms were recorded by a VTI humidity balance. The salts of (N-hydroxy-3-[4-[[[2-(2-methyl-1H-indol-3-yl)ethyl]amino]methyl]phenyl]-2E-2-propenamide were first subjected to a drying step (25° C., r.h. below 2%, 2 hours) and then to a sorption-desorption-sorption sequence, with each RH % step retained for 3 hours. The free base was kept below 2% r.h. for several hours, and thus was completely dehydrated after the drying step. Only the data of the first sorption cycle are given in the table, since, in all cases, the two sorption cycles were very similar.

With `Cc1[nH]c2ccccc2c1CCNCc1ccc(/C=C/C(=O)NO)cc1` [free base form A, N-hydroxy-3-[4-[[[2-(2-methyl-1H-indol-3-yl)ethyl]amino]methyl]phenyl]-2E-2-propenamide] the “solubility in hot ethanol” value ([1]; listed as Form A) was “soluble”.
In the case of `Cc1[nH]c2ccccc2c1CCNCc1ccc(/C=C/C(=O)NO)cc1` [free base form C, N-hydroxy-3-[4-[[[2-(2-methyl-1H-indol-3-yl)ethyl]amino]methyl]phenyl]-2E-2-propenamide], the “solubility in hot ethanol-water mixture” value ([1]; hot ethanol-water mixture) is reported as “soluble”, the “form change upon storage” value ([2]; listed as Form C) is reported as “spontaneously rehydrate to form HA” and the “form change upon storage” value ([2]; listed as form C) is reported as “rehydrate back to form HA”.
Compound `Cc1[nH]c2ccccc2c1CCNCc1ccc(/C=C/C(=O)NO)cc1` [Form A of the propionate salt, N-hydroxy-3-[4-[[[2-(2-methyl-1H-indol-3-yl)ethyl]amino]methyl]phenyl]-2E-2-propenamide] has an aqueous solubility (Aqueous solubility) of ~4000 µg/mL.
In the case of `Cc1[nH]c2ccccc2c1CCNCc1ccc(/C=C/C(=O)NO)cc1` (racemic) [Form HA of the DL-lactate salt, N-hydroxy-3-[4-[[[2-(2-methyl-1H-indol-3-yl)ethyl]amino]methyl]phenyl]-2E-2-propenamide], the hygroscopicity [3] is reported as “slightly hygroscopic”, the “XRPD form after equilibration” value ([4]; Methanol) is reported as “converts to form SA” and the “form after equilibration at pH 1 and 2” value [4] is reported as “the chloride salt is formed”. For the same compound, the “form conversion under most circumstances” value [4] was “slowly converts into form A”.
`Cc1[nH]c2ccccc2c1CCNCc1ccc(/C=C/C(=O)NO)cc1` [Form A of the acetate salt, N-hydroxy-3-[4-[[[2-(2-methyl-1H-indol-3-yl)ethyl]amino]methyl]phenyl]-2E-2-propenamide] showed an aqueous solubility (Aqueous solubility) of ~2000 µg/mL.
With `Cc1[nH]c2ccccc2c1CCNCc1ccc(/C=C/C(=O)NO)cc1` [yellow powder, N-hydroxy-3-[4-[[[2-(2-methyl-1H-indol-3-yl)ethyl]amino]methyl]phenyl]-2E-2-propenamide] the hygroscopicity [3] was “very highly hygroscopic”.
With `Cc1[nH]c2ccccc2c1CCNCc1ccc(/C=C/C(=O)NO)cc1` [Form B of the tartarate salt, N-hydroxy-3-[4-[[[2-(2-methyl-1H-indol-3-yl)ethyl]amino]methyl]phenyl]-2E-2-propenamide] the hygroscopicity [3] was “hygroscopic”.
For `Cc1[nH]c2ccccc2c1CCNCc1ccc(/C=C/C(=O)NO)cc1` [white crystalline solid, N-hydroxy-3-[4-[[[2-(2-methyl-1H-indol-3-yl)ethyl]amino]methyl]phenyl]-2E-2-propenamide], the hygroscopicity [3] was “non-hygroscopic”.
Compound `Cc1[nH]c2ccccc2c1CCNCc1ccc(/C=C/C(=O)NO)cc1` [free base form HA, N-hydroxy-3-[4-[[[2-(2-methyl-1H-indol-3-yl)ethyl]amino]methyl]phenyl]-2E-2-propenamide] has a solubility ([1]; ethanol, read-out: solubility in ethanol) of ~1500 µg/mL (≈ 4.29 mM), a solubility ([1]; ethyl acetate, read-out: solubility in ethyl acetate) of ~5600 µg/mL (≈ 16 mM) and a solubility ([1]; methanol, read-out: solubility in methanol) of ~2300 µg/mL (≈ 6.58 mM). For the same compound, the hygroscopicity [3] was “slightly hygroscopic”, the “form change under vacuum” value ([2]; under vacuum even at ambient temperature) was “completely dehydrates and converts to form C” and the aqueous solubility (Aqueous solubility) was “approximately 0.004 mg/mL”.
`Cc1[nH]c2ccccc2c1CCNCc1ccc(/C=C/C(=O)NO)cc1` [Form A of the hemi-malate salt, N-hydroxy-3-[4-[[[2-(2-methyl-1H-indol-3-yl)ethyl]amino]methyl]phenyl]-2E-2-propenamide] gave an aqueous solubility (Aqueous solubility) of ~1400 µg/mL.
With `Cc1[nH]c2ccccc2c1CCNCc1ccc(/C=C/C(=O)NO)cc1` [Form A of the phosphate salt, N-hydroxy-3-[4-[[[2-(2-methyl-1H-indol-3-yl)ethyl]amino]methyl]phenyl]-2E-2-propenamide] the aqueous solubility (Aqueous solubility) was ~6000 µg/mL.
For `Cc1[nH]c2ccccc2c1CCNCc1ccc(/C=C/C(=O)NO)cc1` (racemic) [Form A of the DL-lactate salt, N-hydroxy-3-[4-[[[2-(2-methyl-1H-indol-3-yl)ethyl]amino]methyl]phenyl]-2E-2-propenamide], the hygroscopicity [3] was “slightly hygroscopic”, the “form observed on equilibration” value ([4]; at 0° C. and 10° C. and in acetone/water mixture) was “observed along with form HA” and the “relative stability of the form” value ([4]; in water and in most organic solvents) was “more stable than the other forms of the DL-lactate salt”. The “form after equilibration at pH 1 and 2” value [4] was “the chloride salt is formed” and the “form conversion under most circumstances” value [4] was “does not convert into any other form”.
With `Cc1[nH]c2ccccc2c1CCNCc1ccc(/C=C/C(=O)NO)cc1` [free base form B, N-hydroxy-3-[4-[[[2-(2-methyl-1H-indol-3-yl)ethyl]amino]methyl]phenyl]-2E-2-propenamide] the “solubility in hot ethanol” value ([1]; listed as form B) was “insoluble”.
With `Cc1[nH]c2ccccc2c1CCNCc1ccc(/C=C/C(=O)NO)cc1` [Form A of the maleate salt, N-hydroxy-3-[4-[[[2-(2-methyl-1H-indol-3-yl)ethyl]amino]methyl]phenyl]-2E-2-propenamide] the “solubility in methanol and ethanol” value ([1]; methanol and ethanol) was “high solubility”, the “solubility in other common / remaining organic solvents” value ([1]; other common organic solvents) was “considerable solubility” and the hygroscopicity [3] was “nonhygroscopic”. The intrinsic dissolution (Intrinsic dissolution) was “good”, the aqueous solubility (Aqueous solubility) was 2600 µg/mL and the “XRPD form after equilibration” value ([4]; 2-Propanol) was “No change”. For the same compound, the “XRPD form after equilibration” value ([4]; Acetone) was “No change”, the “XRPD form after equilibration” value ([4]; Ethanol) was “No change” and the “XRPD form after equilibration” value ([4]; Ethyl Acetate) was “No change”. For the same compound, the “XRPD form after equilibration” value ([4]; Methanol) was “No change”, the “XRPD form after equilibration” value ([4]; pH = 6.8 buffer (phosphate)) was “No change” and the “XRPD form after equilibration” value ([4]; water) was “No change”. For the same compound, the Sorption ([5]; Sample RH % 1.5) was 0%, the Sorption ([5]; Sample RH % 5) was 0.02% and the Desorption ([5]; Sample RH % 5) was −0.02. For the same compound, the Sorption ([5]; Sample RH % 25) was 0.07%, the Desorption ([5]; Sample RH % 25) was 0.05 and the Sorption ([5]; Sample RH % 50) was 0.12%. For the same compound, the Desorption ([5]; Sample RH % 50) was 0.10, the Sorption ([5]; Sample RH % 75) was 0.16% and the Desorption ([5]; Sample RH % 75) was 0.17. It also gave a Sorption ([5]; Sample RH % 85) of 0.17%, a Desorption ([5]; Sample RH % 85) of 0.19 and a Sorption ([5]; Sample RH % 95) of 0.21%. It also gave a Desorption ([5]; Sample RH % 95) of 0.21.
Compound `Cc1[nH]c2ccccc2c1CCNCc1ccc(/C=C/C(=O)NO)cc1` [Form A of the benzoate salt, N-hydroxy-3-[4-[[[2-(2-methyl-1H-indol-3-yl)ethyl]amino]methyl]phenyl]-2E-2-propenamide] has an aqueous solubility (Aqueous solubility) of ~700 µg/mL.
For `Cc1[nH]c2ccccc2c1CCNCc1ccc(/C=C/C(=O)NO)cc1` [Form A of the sulfate salt, N-hydroxy-3-[4-[[[2-(2-methyl-1H-indol-3-yl)ethyl]amino]methyl]phenyl]-2E-2-propenamide], the hygroscopicity [3] was “visibly hygroscopic”.
`Cc1[nH]c2ccccc2c1CCNCc1ccc(/C=C/C(=O)NO)cc1` [Form A of the hemi-fumarate salt, N-hydroxy-3-[4-[[[2-(2-methyl-1H-indol-3-yl)ethyl]amino]methyl]phenyl]-2E-2-propenamide] showed an aqueous solubility (Aqueous solubility) of ~400 µg/mL.
With `Cc1[nH]c2ccccc2c1CCNCc1ccc(/C=C/C(=O)NO)cc1` [Free Base, N-hydroxy-3-[4-[[[2-(2-methyl-1H-indol-3-yl)ethyl]amino]methyl]phenyl]-2E-2-propenamide] the “XRPD form after equilibration” value ([4]; 2-Propanol) was “No change”, the “XRPD form after equilibration” value ([4]; Acetone) was “No change” and the “XRPD form after equilibration” value ([4]; Ethanol) was “Changed to new”. The “XRPD form after equilibration” value ([4]; Ethyl Acetate) was “No change”, the “XRPD form after equilibration” value ([4]; Methanol) was “Changed to new” and the “XRPD form after equilibration” value ([4]; pH = 6.8 buffer (phosphate)) was “No change”. The “XRPD form after equilibration” value ([4]; water) was “No change”, the Sorption ([5]; Sample RH % 1.5) was 0% and the Sorption ([5]; Sample RH % 5) was 0.06%. The Desorption ([5]; Sample RH % 5) was 4.11, the Sorption ([5]; Sample RH % 25) was 3.39% and the Desorption ([5]; Sample RH % 25) was 5.11. It also gave a Sorption ([5]; Sample RH % 50) of 5.17%, a Desorption ([5]; Sample RH % 50) of 5.21 and a Sorption ([5]; Sample RH % 75) of 5.22%. The Desorption ([5]; Sample RH % 75) was 5.31, the Sorption ([5]; Sample RH % 85) was 5.24% and the Desorption ([5]; Sample RH % 85) was 5.33. The Sorption ([5]; Sample RH % 95) was 5.37% and the Desorption ([5]; Sample RH % 95) was 5.37.
With `Cc1[nH]c2ccccc2c1CCNCc1ccc(/C=C/C(=O)NO)cc1` [Form A of the hemi-succinate salt, N-hydroxy-3-[4-[[[2-(2-methyl-1H-indol-3-yl)ethyl]amino]methyl]phenyl]-2E-2-propenamide] the aqueous solubility (Aqueous solubility) was ~400 µg/mL.
